# Key:
# [1] = tested on: 5TGM1/C57BL/KaLwRij mouse myeloma model; assay: Serum IgG2b level in 5TGM1/C57BL/KaLwRij myeloma mice; settings: bortezomib 1 mg/kg, PTH 80 μg/kg; p=0.017, p=0.029, p=0.017 respectively; FIG. 7
# Experimental: A preclinical myeloma model was employed to examine the effects of PTH and bortezomib (velcade) on proteasome activity with respect to bone remodeling and MM pathogenesis. As such, myelomatous C57BL/KaLwRij mice were injected with 5TGM1 multiple myeloma cells as described. […] Briefly, 5TGM1 inoculation cultures were harvested, centrifuged, washed twice in 50 mL phosphate-buffered saline (PBS), and resuspended at 5×10^6 cells per mL of PBS. Experimental mice were injected with 100 μl of inoculation culture via tail vein injection using a 27-gauge needle. Control animals received injections of PBS.
# Each experimental group included 5 mice, and one week after 5TGM1 cell injection, bortezomib, PTH, and/or {[TYR^34]bPTH-(7-34)} were administered in various combinations. The following groups, each containing five mice, were analyzed: untreated controls; bortezomib-treated mice; PTH treated mice; PTH and bortezomib treated mice; and 5{[TYR^34]bPTH-(7-34)} and bortezomib treated mice.
# In accord with the experimental procedure outline above, bortezomib (velcade), at a concentration of 1 mg/kg, was administered to the mice via intraperitoneal injection alone, or in combination with PTH or the anti-PTH compound, twice a week (FIG. 6). PTH was added in a similar fashion, once-daily, alone, or in combination with bortezomib, at a concentration of 80 μg/kg. […]
# 5TGM1 myeloma cells = assay: 5TGM1 myeloma cell proliferation; type: cell-based, mouse; settings: for 5TGM1 cell growth compared to controls: once a day, FIG. 2
# Experimental: Blood. 93: 1697-1706 (1999). 5TGM1 cells were grown in Hyclone classical liquid media RPMI 1640 (Thermo Scientific Hyclone, Logan, Utah) supplemented with heat-inactivated fetal bovine serum (Thermo Scientific Hyclone, Logan, Utah) and 1% penicillin-streptomycin solution (GIBCO, Grand Island, N.Y.) at 37° C. in 5% CO2. Additionally, two bortezomib-resistant MM cell lines, RPMI 8226 and ARP1, were generated via a stepwise increase in bortezomib (velcade) concentration.
# Initially, 5TGM1 myeloma cells were seeded in 24-well plates (10^5 cells/mL) using RPMI-1640, supplemented with 2% FBS, in the presence or absence of bortezomib (velcade), PTH, and/or {[TYR^34]bPTH-(7-34)}.
# [2] = tested on: 5TGM1/C57BL/KaLwRij mouse myeloma model; assay: Overall survival of 5TGM1/C57BL/KaLwRij myeloma mice; type: in vivo
# Experimental: Blood. 114 Abstract 2865 (2009). […] Control animals received injections of PBS.
# In this regard, the anti-PTH compound, {[TYR^34]bPTH-(7-34)}, was also tested in the presence or absence of bortezomib and PTH to determine whether myeloma growth and/or bone formation were affected. Similar experiments were performed using carfilzomib as shown below.
# C57BL/KaLwRij mice (n=5) were subcutaneously injected carfilzomib (1.5 mg/kg) twice a week. The anti-PTH compound (500 μg/kg) was also administered to the mice 3 days prior and 1 day prior to carfilzomib treatment, where noted. Tumor burden was monitored by measuring IgG2b serum concentration twice a week.
# [3] = tested on: bortezomib-resistant RPMI 8226 MM cell line; assay: IC50 of bortezomib in bortezomib-resistant RPMI 8226 cells; type: cell-based; settings: RPMI8226 bortezomib-resistant cells
# Experimental: 5TGM1 myeloma cells (Noboru et al., A multiresponse parathyroid hormone assay: an inhibitor has agonist properties in vivo. American Physiological Society. E589-95 (1983)) were initially derived from the myeloma cell line 5T33, which were obtained from C57BL/KaLwRij mice. See Dallas et al., Ibandronate Reduces Osteolytic Lesions but not Tumor Burden in a Murine Model of Myeloma Bone Disease. Blood. 93: 1697-1706 (1999). 5TGM1 cells were grown in Hyclone classical liquid media RPMI 1640 (Thermo Scientific Hyclone, Logan, Utah) supplemented with heat-inactivated fetal bovine serum (Thermo Scientific Hyclone, Logan, Utah) and 1% penicillin-streptomycin solution (GIBCO, Grand Island, N.Y.) at 37° C. in 5% CO2. Additionally, two bortezomib-resistant MM cell lines, RPMI 8226 and ARP1, were generated via a stepwise increase in bortezomib (velcade) concentration.
molecule,measurement,setting,value
CC(C)C[C@H](NC(=O)[C@H](Cc1ccccc1)NC(=O)c1cnccn1)B(O)O [bortezomib],serum IgG level compared to controls,[1],significant inhibition
same,5TGM1 cell proliferation compared to controls,"5TGM1 myeloma cells; bortezomib alone at 5 nM or 10 nM, every other day, p=0.01 at 5 nM, p=0.001 at 10 nM, FIG. 1",concentration dependent reduction in 5TGM1 cell proliferation
same,increased survival versus control mice,[2]; bortezomib 1 mg/kg intraperitoneal twice a week,40%
same,maximum survival,"[2]; bortezomib 1 mg/kg intraperitoneal twice a week, control mice maximum five weeks",up to seven
same,survival compared to controls,"[2]; bortezomib 1 mg/kg intraperitoneal twice a week, p=0.044, FIG. 6",prolonged survival
same,survival compared to mice treated with bortezomib and the anti-PTH compound,"[2]; bortezomib 1 mg/kg, PTH 80 μg/kg, p=0.044 (bortezomib), p=0.047 (bortezomib and PTH)",significantly longer period of time
same,IC50,[3],250 nM
CC(C)C[C@H](NC(=O)[C@H](CCc1ccccc1)NC(=O)CN1CCOCC1)C(=O)N[C@@H](Cc1ccccc1)C(=O)N[C@@H](CC(C)C)C(=O)[C@@]1(C)CO1 [carfilzomib],survival compared to controls,"[2]; carfilzomib 1.5 mg/kg subcutaneous twice a week, p=0.012, FIG. 8",increased survival
"{[TYR^34]bPTH-(7-34)} (FMHNLGKHLSSMERVEWLRKKLQDVHNY; Parathyroid hormone; UniProt P01268 38-65, looked up, variant F34Y) [anti-PTH, analog of PTH, antagonist of PTH]",effect on 5TGM1 cell survival,"5TGM1 myeloma cells; anti-PTH alone at 100 nM, 500 nM and 1 μM, p=0.1, FIG. 3",did not have an effect
"parathyroid hormone (peptide, UniProt P01270 32-115, looked up, Parathyroid hormone, 84 amino acid polypeptide secreted by the parathyroid glands) Parathyroid hormone: SVSEIQLMHNLGKHLNSMERVEWLRKKLQDVHNFVALGAPLAPRDAGSQRPRKKEDNVLVESHEKSLGEADKADVNVLTKAKSQ",serum IgG level compared to controls,[1],significant inhibition
same,5TGM1 cell growth compared to controls,"5TGM1 myeloma cells; PTH alone 10 nM, p=0.1",not a significant difference
same,5TGM1 cell growth compared to controls,"5TGM1 myeloma cells; PTH alone 50 nM, p=0.001",statistically significant decrease in cell growth
same,5TGM1 cell growth compared to controls,"5TGM1 myeloma cells; PTH alone 100 nM, p=0.001",statistically significant decrease in cell growth

# Reference: patent US20130109017A1, “MULTIPLE MYELOMA PROGNOSIS AND TREATMENT” (University of Utah Research Foundation, priority 2010, published 2013)
